# According to patent publication US4450269A, “Mono-5-substituted-3-chloro-4H-1,2,6-thiadiazin-4-one antifungal agents” (FMC Corporation, priority 1980, dated 1984):
# Read-outs that look alike come from different tables or passages of the source.
# Columns and labels:
# Alternaria solani [1] = experiment: Spore germination test; assay type: cell-based; conditions: AS, 48 hours
# Protocol: (§1) The test chemical was dissolved or suspended in acetone in an amount such that 0.8 ml of the resulting suspension or solution, mixed with 40 ml water agar produced a water agar solution containing 40, 10, 2.5 and 1 ppm of test chemical. The resulting agar solution, at 50° C., was then divided equally between two sterile petri dishes, each having four separated quadrants, and allowed to solidify. […] quadrants of each dish were flooded with 0.1 ml of a spore suspension in sterile water. Spores of two pathogens, Erysiphe polygoni and Uromyes phaseoli, from infected plant leaves, were brushed on the remaining two quadrants. The tests were then incubated 48 hours, at 24° C.
# (§2) Readings were then taken and the percentage of germinated spores calculated. From this percentage, a spore germination rating was assigned as follows: […]
# Botrytis cinerea = experiment: Spore germination test; assay type: cell-based; conditions: BC, 48 hours
# Protocol: as §1, §2
# Erysiphe polygoni [2] = experiment: Spore germination test; assay type: cell-based; conditions: EP, 48 hours
# Protocol: as §1, §2
# Uromyces phaseoli [3] = experiment: Spore germination test; assay type: cell-based; conditions: UP, 48 hours
# Protocol: as §1, §2
# Pyricularia oryzae [4] = assay type: cell-based; conditions: PO, 48 hours
# Cladosporium cucumerinum [5] = experiment: Spore germination test; assay type: cell-based; conditions: CC, 48 hours
# Protocol: CC = Cladosporium cucumerinum
# as §1, §2
# Phytophthora infestans [6] = assay type: cell-based; conditions: PI, 48 hours
# Alternaria solani [7] = experiment: Mycelial growth test; assay type: cell-based; conditions: AS; for Percent Fungus Growth Inhibition: 72 hours
# Fusarium solani [8] = experiment: Mycelial growth test; assay type: cell-based; conditions: PS, 72 hours
# Sclerotinia fructicola = experiment: Mycelial growth test; assay type: cell-based; conditions: SF; for Percent Fungus Growth Inhibition: 72 hours
# Description: | SF = Sclerotinia fructicola
# Pyricularia oryzae [9] = experiment: microbe, parasite or virus in culture; assay type: cell-based; conditions: for Percent Fungus Growth Inhibition: PO, 72 hours
# Pythium ultimum = experiment: Mycelial growth test; assay type: cell-based; conditions: PU; for Percent Fungus Growth Inhibition: 72 hours
# Rhizoctonia solani = experiment: Mycelial growth test; assay type: cell-based; conditions: RS; for Percent Fungus Growth Inhibition: 72 hours
# Description: | RS = Rhizoctonia solani
# Cladosporium cucumerinum [10] = experiment: Mycelial growth test; assay type: cell-based; conditions: CC, 72 hours
# Description: |CC = Cladosporium cucumerinum
# Phytophthora infestans [11] = experiment: whole plant or invertebrate; assay type: in vivo
# Pyricularia oryzae [12] = experiment: whole plant or invertebrate; assay type: in vivo
# [13] = test system: Pythium ultimum and Rhizoctonia solani; experiment: Soil/seed treatment, cucumber damping-off complex; assay type: in vivo; conditions: 150 ppm suspension, 3.75 to 3.8 mg per pot
# Protocol: Containers having a volume of about 0.25 l. were 2/3 filled with topsoil and 25 cucumber c.v. [Straight Eight` seeds deposited on the soil surface of each pot. A suspension containing 150 ppm of the test chemical was poured over the seeds and into the soil in sufficient quantity to provide 3.75 to 3.8 mg active ingredient per pot.
# Fungi used in this test were Pythium ultimum and Rhizoctonia solani. These fungi were each grown on potato dextrose agar for three to six days. The agar plus mycelium was then minced in a blender with water and 10 ml of the resulting slurry of minced mycelium poured over the seeds.
# Following inoculation approximately 15 mm of topsoil was spread over the seeds, the container capped and incubated at 4° C. in darkness for three days, then transferred to a greenhouse (27° C.) for 10-14 days, at which time stand counts were made. Captan was used as a standard for comparison. Based on stand counts on Efficacy Index was calculated for each test chemical as follows: [formula]
# Uromyces phaseoli [14] = conditions: in vivo
# Uromyces phaseoli [15] = conditions: in vivo; remark: listed apart in the source
# Erysiphe polygoni [16] = conditions: in vivo
# Helminthosporium oryzae = experiment: Mycelial growth test; conditions: for Percent Fungus Growth Inhibition: HO, 72 hours
# Fusarium solani [17] = experiment: Soil treatment, bean root rot; assay type: in vivo; conditions: Fusarium solani, soil, 336 h; 150 ppm suspension, 3.8 mg active per pot; read-out: Percent Disease Control, seed/soil, bean root rot
# Protocol: In a similar manner the soil around a bean seedling was drenched with a sufficient amount of 150 ppm suspension of test chemical to provide 3.8 mg active per pot. Twenty-four hours later the soil was inoculated with a suspension of minced mycelium of Fusarium solani. The inoculated plants were then placed in a greenhouse, evaluated after fourteen days, and percent control of root rot damage calculated. The results, reported in Table III, indicate only a few of the compounds tested are effective in treating Bean Root Rot but that these provide a high degree of control.
# Uromyces phaseoli [18] = experiment: whole plant or invertebrate; conditions: foliar, read-out: Percent Disease Control, foliar, bean rust
# Uromyces phaseoli [19] = experiment: whole plant or invertebrate; conditions: foliar, 24 h, read-out: Percent Disease Control, curative, bean rust
# Erysiphe polygoni [20] = experiment: whole plant or invertebrate; conditions: foliar, 24 h, read-out: Percent Disease Control, curative, bean powdery mildew
# Cercospora beticola = experiment: whole plant or invertebrate; conditions: in Beta vulgaris, foliar, 24 h, read-out: Percent Disease Control, curative, sugar beet leaf spot
compound,measurement,setting,value
"3-chloro-5-[methylaminocarbonyloxy)phenoxyl]-4H-1,2,6-thiadiazin-4-one [Compound 36]",Spore Germination Rating,Alternaria solani [1]; 1.0 ppm,4 (80-100)
same,Spore Germination Rating,Alternaria solani [1]; 2.5 ppm,4 (80-100)
same,Spore Germination Rating,Alternaria solani [1]; 10 ppm,2 (40-60)
same,Spore Germination Rating,Alternaria solani [1]; 40 ppm,0 (0-10)
same,Spore Germination Rating,Botrytis cinerea; 1.0 ppm,4 (80-100)
same,Spore Germination Rating,Botrytis cinerea; 2.5 ppm,4 (80-100)
same,Spore Germination Rating,Botrytis cinerea; 10 ppm,4 (80-100)
same,Spore Germination Rating,Botrytis cinerea; 40 ppm,2 (40-60)
same,Spore Germination Rating,Erysiphe polygoni [2]; 1.0 ppm,4 (80-100)
same,Spore Germination Rating,Erysiphe polygoni [2]; 2.5 ppm,3 (60-80)
same,Spore Germination Rating,Erysiphe polygoni [2]; 10 ppm,1 (10-40)
same,Spore Germination Rating,Erysiphe polygoni [2]; 40 ppm,1 (10-40)
same,Spore Germination Rating,Uromyces phaseoli [3]; 1.0 ppm,4 (80-100)
same,Spore Germination Rating,Uromyces phaseoli [3]; 2.5 ppm,2 (40-60)
same,Spore Germination Rating,Uromyces phaseoli [3]; 10 ppm,0 (0-10)
same,Spore Germination Rating,Uromyces phaseoli [3]; 40 ppm,0 (0-10)
same,Spore Germination Rating,Pyricularia oryzae [4]; 1.0 ppm,4 (80-100)
same,Spore Germination Rating,Pyricularia oryzae [4]; 2.5 ppm,2 (40-60)
same,Spore Germination Rating,Pyricularia oryzae [4]; 10 ppm,0 (0-10)
same,Spore Germination Rating,Pyricularia oryzae [4]; 40 ppm,0 (0-10)
same,Spore Germination Rating,Cladosporium cucumerinum [5]; 1.0 ppm,4 (80-100)
same,Spore Germination Rating,Cladosporium cucumerinum [5]; 2.5 ppm,3 (60-80)
same,Spore Germination Rating,Cladosporium cucumerinum [5]; 40 ppm,0 (0-10)
same,Spore Germination Rating,Phytophthora infestans [6]; 1.0 ppm,4 (80-100)
same,Spore Germination Rating,Phytophthora infestans [6]; 2.5 ppm,4 (80-100)
same,Spore Germination Rating,Phytophthora infestans [6]; 10 ppm,4 (80-100)
same,Spore Germination Rating,Phytophthora infestans [6]; 40 ppm,0 (0-10)
same,Percent Fungus Growth Inhibition,Alternaria solani [7]; 5 ppm,71%
same,Percent Fungus Growth Inhibition,Alternaria solani [7]; 10 ppm,90%
same,Percent Fungus Growth Inhibition,Alternaria solani [7]; 20 ppm,100%
same,Percent Fungus Growth Inhibition,Alternaria solani [7]; 40 ppm,100%
same,Percent Fungus Growth Inhibition,Fusarium solani [8]; 5 ppm,30%
same,Percent Fungus Growth Inhibition,Fusarium solani [8]; 10 ppm,45%
same,Percent Fungus Growth Inhibition,Fusarium solani [8]; 20 ppm,60%
same,Percent Fungus Growth Inhibition,Fusarium solani [8]; 40 ppm,90%
same,Percent Fungus Growth Inhibition,Sclerotinia fructicola; 5 ppm,38%
same,Percent Fungus Growth Inhibition,Sclerotinia fructicola; 10 ppm,62%
same,Percent Fungus Growth Inhibition,Sclerotinia fructicola; 20 ppm,58%
same,Percent Fungus Growth Inhibition,Sclerotinia fructicola; 40 ppm,100%
same,Percent Fungus Growth Inhibition,Pyricularia oryzae [9]; 5 ppm,31%
same,Percent Fungus Growth Inhibition,Pyricularia oryzae [9]; 10 ppm,69%
same,Percent Fungus Growth Inhibition,Pyricularia oryzae [9]; 20 ppm,100%
same,Percent Fungus Growth Inhibition,Pyricularia oryzae [9]; 40 ppm,100%
same,Percent Fungus Growth Inhibition,Pythium ultimum; 5 ppm,0%
same,Percent Fungus Growth Inhibition,Pythium ultimum; 10 ppm,42%
same,Percent Fungus Growth Inhibition,Pythium ultimum; 20 ppm,100%
same,Percent Fungus Growth Inhibition,Pythium ultimum; 40 ppm,100%
same,Percent Fungus Growth Inhibition,Rhizoctonia solani; 5 ppm,0%
same,Percent Fungus Growth Inhibition,Rhizoctonia solani; 10 ppm,4%
same,Percent Fungus Growth Inhibition,Rhizoctonia solani; 20 ppm,42%
same,Percent Fungus Growth Inhibition,Rhizoctonia solani; 40 ppm,87%
same,Percent Fungus Growth Inhibition,Cladosporium cucumerinum [10]; 5 ppm,0%
same,Percent Fungus Growth Inhibition,Cladosporium cucumerinum [10]; 10 ppm,8%
same,Percent Fungus Growth Inhibition,Cladosporium cucumerinum [10]; 20 ppm,38%
same,Percent Fungus Growth Inhibition,Cladosporium cucumerinum [10]; 40 ppm,62%
same,"Percent Disease Control, foliar, tomato late blight","Phytophthora infestans [11]; 150 ppm, protective",90%
same,"Percent Disease Control, curative, rice blast","Pyricularia oryzae [12]; 150 ppm, 24 hours after inoculation",95%
same,"Efficacy Index, seed/soil, cucumber damping-off complex",[13],13
same,"Percent Disease Control, foliar, bean rust",Uromyces phaseoli [14],100%
same,"Percent Disease Control, curative, bean rust",Uromyces phaseoli [15],0%
same,"Percent Disease Control, curative, bean powdery mildew",Erysiphe polygoni [16],0%
same,Percent Fungus Growth Inhibition,Helminthosporium oryzae; 5 ppm,78%
same,Percent Fungus Growth Inhibition,Helminthosporium oryzae; 10 ppm,78%
same,Percent Fungus Growth Inhibition,Helminthosporium oryzae; 20 ppm,89%
same,Percent Fungus Growth Inhibition,Helminthosporium oryzae; 40 ppm,100%
"O=c1c(Cl)nsnc1Cl [Compound 1, 3,5-dichloro-4H--1,2,6-thiadiazin-4-one]",inhibition at 2.5 ppm,"Alternaria solani [7]; Alternaria solani, 72 h, 2.5 ppm, read-out: Percent Fungus Growth Inhibition",100%
same,inhibition at 5 ppm,"Alternaria solani [7]; Alternaria solani, 72 h, 5 ppm, read-out: Percent Fungus Growth Inhibition",100%
same,inhibition at 10 ppm,"Alternaria solani [7]; Alternaria solani, 72 h, 10 ppm, read-out: Percent Fungus Growth Inhibition",100%
same,inhibition at 2.5 ppm,"Fusarium solani [8]; Fusarium solani, 72 h, 2.5 ppm, read-out: Percent Fungus Growth Inhibition",85%
same,inhibition at 5 ppm,"Fusarium solani [8]; Fusarium solani, 72 h, 5 ppm, read-out: Percent Fungus Growth Inhibition",100%
same,inhibition at 10 ppm,"Fusarium solani [8]; Fusarium solani, 72 h, 10 ppm, read-out: Percent Fungus Growth Inhibition",100%
same,inhibition at 2.5 ppm,"Sclerotinia fructicola; Sclerotinia, 72 h, 2.5 ppm, read-out: Percent Fungus Growth Inhibition",100%
same,inhibition at 5 ppm,"Sclerotinia fructicola; Sclerotinia, 72 h, 5 ppm, read-out: Percent Fungus Growth Inhibition",100%
same,inhibition at 10 ppm,"Sclerotinia fructicola; Sclerotinia, 72 h, 10 ppm, read-out: Percent Fungus Growth Inhibition",100%
same,inhibition at 2.5 ppm,"Pyricularia oryzae [9]; Pyricularia oryzae, 72 h, read-out: Percent Fungus Growth Inhibition, PO, 2.5 ppm, 72 hours",27%
same,inhibition at 5 ppm,"Pyricularia oryzae [9]; Pyricularia oryzae, 72 h, read-out: Percent Fungus Growth Inhibition, PO, 5 ppm, 72 hours",42%
same,inhibition at 10 ppm,"Pyricularia oryzae [9]; Pyricularia oryzae, 72 h, read-out: Percent Fungus Growth Inhibition, PO, 10 ppm, 72 hours",82%
same,inhibition at 2.5 ppm,"Pythium ultimum; Globisporangium ultimum, 72 h, 2.5 ppm, read-out: Percent Fungus Growth Inhibition",0%
same,inhibition at 5 ppm,"Pythium ultimum; Globisporangium ultimum, 72 h, 5 ppm, read-out: Percent Fungus Growth Inhibition",0%
same,inhibition at 10 ppm,"Pythium ultimum; Globisporangium ultimum, 72 h, 10 ppm, read-out: Percent Fungus Growth Inhibition",100%
same,inhibition at 2.5 ppm,"Rhizoctonia solani; Rhizoctonia solani, 72 h, 2.5 ppm, read-out: Percent Fungus Growth Inhibition",100%
same,inhibition at 5 ppm,"Rhizoctonia solani; Rhizoctonia solani, 72 h, 5 ppm, read-out: Percent Fungus Growth Inhibition",64%
same,inhibition at 10 ppm,"Rhizoctonia solani; Rhizoctonia solani, 72 h, 10 ppm, read-out: Percent Fungus Growth Inhibition",100%
same,pest or weed control at 150 ppm,"Phytophthora infestans [11]; Phytophthora infestans, in Solanum lycopersicum, foliar, read-out: Percent Disease Control, foliar, tomato late blight, 150 ppm, protective",0%
same,pest or weed control at 150 ppm,"Pyricularia oryzae [12]; Pyricularia oryzae, foliar, 24 h, read-out: Percent Disease Control, curative, rice blast, 150 ppm, 24 hours after inoculation",0%
same,"pest or weed control at 150 ppm, 3.8 mg/pot",Fusarium solani [17],0%
same,inhibition at 2.5 ppm,"Helminthosporium oryzae; Bipolaris oryzae, 72 h, read-out: Percent Fungus Growth Inhibition, HO, 2.5 ppm, 72 hours",100%
same,inhibition at 5 ppm,"Helminthosporium oryzae; Bipolaris oryzae, 72 h, read-out: Percent Fungus Growth Inhibition, HO, 5 ppm, 72 hours",100%
same,inhibition at 10 ppm,"Helminthosporium oryzae; Bipolaris oryzae, 72 h, read-out: Percent Fungus Growth Inhibition, HO, 10 ppm, 72 hours",100%
same,pest or weed control at 150 ppm,Uromyces phaseoli [18],0%
same,pest or weed control at 150 ppm,Uromyces phaseoli [19],0%
same,pest or weed control at 150 ppm,Erysiphe polygoni [20],0%
same,pest or weed control at 150 ppm,Cercospora beticola,0%
